Measured values reported in US20260265216A1, “NOVEL THIOREDOXIN REDUCTASE INHIBITORS” (GENEXPLAIN GMBH, priority 2021, published 2026).

Assays:
[1] = tested on: HCT116 cells; test: Growth suppression in the presence of antioxidant NAC; assay type: cell-based; settings: HCT116, 5 mM NAC 16 h pre-treatment; 2.5, 5, 10 μM; 24 h
Method: To find out whether oxidative stress plays a role in cancer cell death induced by 1d*HCl, we tested the extent of growth suppression by the treatment in the presence of antioxidant N-acetyl cysteine (NAC), which neutralize ROS. We pre-treated HCT116 cells with 5 mM NAC. After 16 h of incubation with NAC, we treated HCT116 cells with 2.5, 5, and 10 μM of 1d*HCl. We measured the growth suppression 24 h after treatment. […] Thus, we conclude that the mechanism of cancer cell growth suppression is dependent on the induction of oxidative stress by the compounds of the present invention.

[2] = Growth suppression with selenium in culture medium; assay type: cell-based; settings: selenium added to culture medium
From the text: To find out whether the inhibition of TrxR1 is the major mechanism of action of 1d*HCl, we addressed the question, whether stimulation of TrxR1 activity will decrease the growth suppression activity of 1d*HCl. Since TrxR is a selenium-containing enzyme and the concentration of selenium is rate-limiting for TrxR1, we added selenium to culture medium to test whether selenium will alleviate the growth suppression by 1d*HCl.

[3] = tested on: MCF7 cells; test: Apoptosis detection by FACS (Annexin V); assay type: cell-based; settings: 2 μM, 24 h
Method: Cells were placed on 12-well plate at a density of 30000/cm^2 and treated with compounds. After 24 h incubation cells were harvested by trypsinization, fixed with 70% ethanol, treated with RNase A (0.25 mg/ml) and stained with Annexin V according to manufacturer's instructions (Thermo Fisher Scientific). Samples were analyzed on a Becton Dickinson FACScan. Data were analyzed by the CellQuest software, version 3.2.1.
To find out whether the growth suppression by 1d*HCl is due to triggering cell death by apoptosis, we performed the Annexin V-mediated staining of phosphatidylserine, exposed on surface of cells undergoing apoptotic cell death. We detected Annexin V-positive cells using FACS.

[4] = tested on: cancer cells grown in hypoxia; test: Growth suppression under hypoxia versus normoxia; assay type: cell-based; settings: hypoxia vs normoxia
Method: (§1) Breast, colon, ovarian, cervical, liver and lung carcinoma cell lines were grown in DMEM supplemented with 10% FBS, and antibiotics were cultured at 37° C. and 5% CO2. Osteosarcoma, melanoma, lymphoma, neuroblastoma and leukemia cell lines were cultured in RPMI 1640 with 10% FBS and antibiotics. An oxygen concentration of 0.3% was obtained by flushing a sealed box containing the cells with premixed gas composed of 95% nitrogen (N2) and 5% CO2 (AGA AB, Sweden). To obtain an oxygen concentration of 0.05%, the cells were flushed with the premixed gas continuously throughout the experiment.
Hypoxic tumors are often the most aggressive and resistant to chemotherapy. Therefore, we tested how cells in hypoxia will respond to the treatment by 1d*HCl. It has been shown that 1d*HCl is even more efficient in hypoxia condition. […] Thus, the compounds of the present invention are of great interest for the treatment of hypoxic solid tumors.

[5] = tested on: OVCAR3; test: Growth suppression, cancer cell line panel (resazurin); assay type: cell-based; settings: OVCAR3, 0.4-25.6 μM, 48 hours
Method: as §1
(§2) Cells were grown in 96-well plates at a density of 3000 cells per well with or without doxycycline and treated with compounds. After 48 hours of incubation the proliferative cell reagent resazurin (Thermo Fisher Scientific) was added to the cells. The degree of resazurin reduction, which reflects cell viability, was measured by microplate reader by monitoring the absorbance at 570 nm and 600 nm, according to the manufacturer.
(§3) The panel of cancer cell lines, including carcinomas of breast (MDA-MB231, SKBR3, T47D, MCF7; BT549, BT20, MDA-MB468), colon, (SW480, RKO, HT29, HCT116) ovarian (OVCAR3, OVCAR4, OVCAR8), cervical (SW756, C33A), liver (HEPG2) and lung (H23), osteosarcoma (SJSA and U2OS), melanoma (ME180), lymphoma (Raji, HDLM2), neuroblastoma (SKNAS, IMR32) and leukemia (NB4, K562) were treated with increasing concentrations of 1d*HCl: 0.4; 0.8; 1.6; 3.2; 6.4; 12.8; 25.6 μM in 96-well plates. After 48 hours of incubation the proliferative cell reagent resazurin was added to the cells. The degree of resazurin reduction, which reflects cell viability, was measured by microplate reader by monitoring the absorbance at 570 nm and 600 nm, according to the manufacturer, and the IC50 and AUC (area under curve) were determined (Table 2). As could be seen in Table 2, 1d*HCl suppressed the growth of cancer cell lines of a different origin, including carcinomas, osteosarcomas, melanoma, lymphoma, leukemia and neuroblastoma. These findings open up a possibility of the application of the present invention in anti-cancer therapy in a broad range of tumor types.

[6] = tested on: OVCAR4; test: as above; assay type: cell-based; settings: OVCAR4, 0.4-25.6 μM, 48 hours
Method: as §1, §2, §3

[7] = tested on: C33A; test: as above; assay type: cell-based; settings: 0.4-25.6 μM, 48 hours
Method: as §1, §2, §3

[8] = tested on: U2OS; test: as above; assay type: cell-based; settings: 0.4-25.6 μM, 48 hours
Method: as §1, §2, §3

[9] = tested on: IMR32; test: as above; assay type: cell-based; settings: IMR32, 0.4-25.6 μM, 48 hours
Method: as §1, §2, §3

[10] = tested on: recombinant purified GR; test: GR recombinant enzyme assay in vitro; assay type: biochemical
Method: TrxR1 enzyme was recombinantly produced with high Sec contents in a specific Release Factor 1-depleted E. coli strain and purified as previously described (Arnér E S J, Holmgren A, in Current Protocols in Toxicology, Maines M, Costa L, Reed D, Sassa S, Eds. (John Wiley & Sons, Inc., New York, 2000), pp. 7.4.1-7.4.14). TrxR1 and GSR (Sigma) recombinant enzyme assays were performed in a reaction buffer containing 50 mM Tris pH 7.5 with 2 mM EDTA and 0.1 mg/mL bovine serum albumin as described previously (Arnér E S J, Holmgren A, in Current Protocols in Toxicology, Maines M, Costa L, Reed D, Sassa S, Eds. (John Wiley & Sons, Inc., New York, 2000), pp. 7.4.1-7.4.14). Briefly, assays were performed in triplicate using 96-well plates, with activity inferred from absorbance changes using a Spectra Max plate reader. Results of recombinant enzyme assays were normalized to DMSO and to no enzyme controls.
We used recombinant purified TrxR1 and GR in an in vitro assay as described in methods section.

Cl.N#Cc1c(-c2cccnc2)[n+]([O-])c2cc(F)c(N3CCOCC3)cc2[n+]1[O-] [Compound 1d*HCl, 6-Fluoro-7-(morpholin-4-yl)-3-(pyridin-3-yl)quinoxaline-2-carbonitrile-1,4-dioxide hydrochloride]
growth suppression after prevention of ROS accumulation by NAC [1]: almost completely abolished the growth suppression | growth suppression in the presence of selenium [2]: less efficient in the presence of selenium | Annexin V-positive cells (apoptosis) [3]: induced Annexin V-positive cells statistically significantly | IC50 in hypoxia lower than that in normoxia [4]: 2.3 fold | AUC (area under curve) [5]: 4.813 | AUC (area under curve) [6]: 3.7 | AUC (area under curve) [7]: 21 | AUC (area under curve) [8]: 2.10 | AUC (area under curve) [9]: 6.40 | inhibition of GR activity [10]: did not inhibit GR activity
